For this test, the target named is T1, α1 glycine receptor (GlyR) (Mus musculus, UniProt Q64018, K421A/K422A).
T1 sequence (Q64018 29-457 K421A/K422A): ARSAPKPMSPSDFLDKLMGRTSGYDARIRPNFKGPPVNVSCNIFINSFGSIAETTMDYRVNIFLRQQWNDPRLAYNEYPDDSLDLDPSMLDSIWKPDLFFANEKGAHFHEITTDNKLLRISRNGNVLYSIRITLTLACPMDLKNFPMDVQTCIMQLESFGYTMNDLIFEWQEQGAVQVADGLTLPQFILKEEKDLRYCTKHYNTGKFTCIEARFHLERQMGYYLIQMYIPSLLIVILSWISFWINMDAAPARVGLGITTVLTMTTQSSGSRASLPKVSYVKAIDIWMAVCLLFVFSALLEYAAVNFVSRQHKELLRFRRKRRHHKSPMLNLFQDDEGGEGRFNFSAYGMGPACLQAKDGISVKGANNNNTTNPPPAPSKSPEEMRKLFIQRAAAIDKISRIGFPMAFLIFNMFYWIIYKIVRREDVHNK
Briefly: whole-cell patch clamp, glycine concentration-response. The format is cell-based.

Broadly, the EC50 is the concentration at which the effect is half-maximal. A lower EC50 goes with an effect from little substance. On to `NCC(=O)O` [glycine], for which the midpoint of the response, the EC50, lay at 54 ± 1 µM.
